B1: Ovalbumin: model protein antigen injected without adjuvant (protein, UniProt P01012 2-386, looked up)
Ovalbumin: GSIGAASMEFCFDVFKELKVHHANENIFYCPIAIMSALAMVYLGAKDSTRTQINKVVRFDKLPGFGDSIEAQCGTSVNVHSSLRDILNQITKPNDVYSFSLASRLYAEERYPILPEYLQCVKELYRGGLEPINFQTAADQARELINSWVESQTNGIIRNVLQPSSVDSQTAMVLVNAIVFKGLWEKAFKDEDTQAMPFRVTEQESKPVQMMYQIGLFRVASMASEKMKILELPFASGTMSMLVLLPDEVSGLEQLESIINFEKLTEWTSSNVMEERKIKVYLPRMKMEEKYNLTSVLMAMGITDVFSSSANLSGISSAESLKISQAVHAAHAEINEAGREVVGSAEAGVDAASVSEEFRADHPFLFCIKHIATNAVLFFGRCVSP

Columns and labels:
[1] = i.m., 50 μl, various concentrations, after 7 days
Experimental: Paclitaxel (PTX) (Bristol-Myers Squibb, Princeton, N.J.), Doxorubicin (DOX) (Gensia, Irvine, Calif.), and Cisplatin (CIS) (Bristol-Myers Squibb) are diluted before injection. Cyclophosphamide (CTX) (Bristol-Myers Squibb) is diluted in sterile water before injection. PTX, CTX, Dox and CIS are injected intramuscularly (i.m.). (50 μl containing various concentrations of chemotherapeutic agents). Muscles are harvested and sectioned to perform histological analysis to assess tissue damage.

[2] = system: melanoma; conditions: pretreatment with low dose cyclophosphamide before melanoma vaccine, after 2 months of immunization; cited from earlier work
[3] = system: B16 cells; assay: Melanine levels in B16 cells pretreated with paclitaxel; assay type: cell-based
Experimental: This unexpected observation lead to the immunological rationale for testing immune-modulating doses of chemotherapy in combination with an antigen. As described in Example II, paclitaxel increased the humoral response against ovalbumin. The testing of paclitaxel as improving a whole-cell vaccine in mice was performed as shown in Examples III and V. This principle is illustrated in FIG. 1. Sterilizing cancer cells with chemotherapeutic agents before immunization of the mice with a composition of cancer cells undergoing apoptosis and/or necrosis and chemotherapeutic agents protected the animals against a lethal tumor challenge. This was unexpected since chemotherapeutic agents are known to be toxic and to trigger systemic immunosuppression. Also, to have in one single composition a chemotherapeutic agent(s) and an antigen administered simultaneously simplifies the use of chemotherapeutic agents as potential vaccine adjuvants. The presence of the chemotherapeutic agent in the anti-cancer vaccine composition also renders moot or diminish the need to proceed to the inactivation by irradiation of the tumoral cells forming the anti-cancer vaccine before reinoculation. The drugs, especially paclitaxel, helps to raise an immune response by inducing a variety of genes known to be antigenic. […]

[4] = system: C2C12 cells; assay: Paclitaxel toxicity on differentiated C2C12 cells; assay type: cell-based; conditions: various concentrations, even high concentration, non-dividing cells
Experimental: […] cells were plated in a 12-wells plate at 7×10^4 cells/ml/well in complete DMEM (10 FBS, 1% Strepto-pen, 1% Hepes) and incubated O/N at 37° C. under 5% CO2 atmosphere. Twenty-four hours later, normal DMEM was changed for DMEM containing 2% Horse serum, 1% Strepto-pen and 1% Hepes. The medium was then changed everyday with the complete DMEM 2% Horse serum. For an extra 7 days, complete DMEM 10% Horse serum was added to the cells. After about 1 week, all cells were differentiated and treated with various concentrations of paclitaxel. Even at a high concentration of paclitaxel, differentiated cells now forming elongated muscular fibers, were not affected by any treatment probably due to the non-dividing state of the cells. This observation support the fact that drugs can be injected in the muscle without necessarily causing damages or cell death.

[5] = system: MCP-1; assay: Paclitaxel induces MCP-1 in muscle tissue (RT-PCR); assay type: in vivo, Mice; conditions: i.m., muscle harvested 6 hours after injection
Experimental: Mice are injected intramuscularly (bilaterally) with varying doses of paclitaxel (100 μM to 0.01 μM). Doses of paclitaxel are prepared by 10-fold serial dilutions, in saline, of a 10 mM DMSO stock. The muscles are harvested, on dry ice, 6 hours following injection, and frozen at −80° C. RNA is isolated using TRIZOL reagent (Gibco) as per manufacturers specifications. Ten micrograms of total RNA is reverse transcribed using Superscript RT (Gibco), 500 ng oligodT primers (Gibco), and 250 ng Random Hexamer primers (Gibco) for 20 minutes at room temperature, followed by 2 hours at 42° C.
MCP-1 is amplified from 2 μl of reverse transcription reaction using Titanium PCR kit (Clontech). Amplification primers are as follows:
The PCR reaction is performed for 30 cycles using 100 pmole for each primer, with an annealing temperature of 68 degrees. The PCR products are analyzed on a 1.5% agarose gel, and have an expected size of 397 bps.

[6] = system: ovalbumin; assay: Humoral response against ovalbumin (ELISA) after intramuscular immunization; assay type: in vivo, Mice; conditions: 1 μg ovalbumin i.m. without adjuvant, 2 weeks
Experimental: The animals are injected intramuscularly into tibialis anterior muscles with 50 μl containing either 1 μg of ovalbumin formulated with or without paclitaxel at 10E^−2 molar. Mice are sacrificed at various time points to perform the ELISA (2 weeks post-immunization). Ovalbumin-specific antibody responses are quantified by enzyme-linked immunosorbent assay (ELISA). Microtiter plates are coated overnight with 1 μg per well of ovalbumin. Plates are then washed once with PBS-Tween 0.01% and blocked for 2 hours at 37° C. with PBS+1% BSA. The plates are then incubated with serial dilutions of mouse sera for 1 hour at 37° C. […] The data are expressed as the percentage of responding mice and as the mean titers of responding mice.

Row | Molecule | infiltration of lymphocytes (histology of injected muscle) [1] | tissue damage (histology of injected muscle) [1] | other results
1 | N.N.[Cl][Pt][Cl] [Cisplatin] | mild to moderate | no sign of tissue damage | 
2 | O=P1(N(CCCl)CCCl)NCCCO1 (stereo not drawn) [Cyclophosphamide] | mild to moderate | no sign of tissue damage | patients with augmented antibody and/or cellular immune responses to melanoma [2]: 83%
3 | COc1cccc2c1C(=O)c1c(O)c3c(c(O)c1C2=O)C[C@@](O)(C(=O)CO)C[C@@H]3O[C@H]1C[C@H](N)[C@H](O)[C@H](C)O1 [Doxorubicin] | mild to moderate | no sign of tissue damage | 
4 | CC(=O)O[C@H]1C(=O)[C@@]2(C)[C@H]([C@H](OC(=O)c3ccccc3)[C@]3(O)C[C@H](OC(=O)[C@H](O)[C@@H](NC(=O)c4ccccc4)c4ccccc4)C(C)=C1C3(C)C)[C@]1(OC(C)=O)CO[C@@H]1C[C@@H]2O [Paclitaxel] | mild to moderate | no sign of tissue damage | Melanine levels in B16 cells [3]: increases; effect on differentiated C2C12 cells (toxicity) [4]: not affected; Fold-induction over GAPDH (MCP-1 RT-PCR) ([5]; 0.01 μM per injection): 2 fold; Fold-induction over GAPDH (MCP-1 RT-PCR) ([5]; 1 μM per injection): 3 fold; Fold-induction over GAPDH (MCP-1 RT-PCR) ([5]; 100 μM per injection): 6 fold
5 | B1 |  |  | % seroconversion [6]: 20%
